According to patent publication US20150209327A1, “METHODS FOR THE TREATMENT OF OBESITY USING APREMILAST” (Celgene Corporation, priority 2014, published 2015):

Experiment: Apremilast Data Pool: weight change
Type: in vivo, human
Description: Similar results of weight loss were reported for the Apremilast Data Pool. A weight decrease was reported during the Placebo-controlled Period (24 weeks) in 3 (0.2%) subjects who received placebo and 26 (0.9%) subjects who received apremilast, including 8 (0.8%) subject in the APR 20 BID group, and 18 (1.1%) subjects in the APR 30 BID group.
The end-of-period value is the last postbaseline value (only through the Placebo-controlled Period for placebo-treated subjects) including data up to 28 days after the last dose of investigational product but excluding the observational follow-up visit.
The end-of-period value is the last postbaseline value (while subjects were receiving apremilast), including data up to 28 days after the last dose of apremilast but excluding the observational follow-up visit.

[1] = 20 mg BID, Apremilast-exposure Period
[2] = 20 mg BID, Apremilast-exposure Period, Apremilast Subjects as Treated, m = 1373
[3] = 20 mg BID, Placebo-controlled Period
[4] = 20 mg BID, Placebo-controlled Period, Subjects as Initially Treated at Week 0, m = 900
[5] = 30 mg BID, Apremilast-exposure Period
[6] = 30 mg BID, Apremilast-exposure Period, Apremilast Subjects as Treated, m = 2268
[7] = 30 mg BID, Placebo-controlled Period
[8] = 30 mg BID, Placebo-controlled Period, Subjects as Initially Treated at Week 0, m = 1541
[9] = APR Total, Apremilast-exposure Period, Apremilast Subjects as Treated, m = 3606
[10] = APR Total, Placebo-controlled Period, Subjects as Initially Treated at Week 0, m = 2591

CCOc1cc([C@@H](CS(C)(=O)=O)N2C(=O)c3cccc(NC(C)=O)c3C2=O)ccc1OC [Apremilast, (+)-2-[1-(3-ethoxy-4-methoxyphenyl)-2-methylsulfonylethyl]-4-acetylaminoisoindoline-1,3-dione]
observed weight loss of greater than 10%, % subjects [1]: 4.0% | weight decrease reported, subjects n (%) [1]: 17 (1.2%) n (%) | Weight % Change Category 0%, n (%) [2]: 125 (9.1) n (%) | Weight % Change Category <−20%, n (%) [2]: 2 (0.1) n (%) | Weight % Change Category >0% to ≦5%, n (%) [2]: 410 (29.9) n (%) | Weight % Change Category >5% to ≦10%, n (%) [2]: 56 (4.1) n (%) | Weight % Change Category >10% to ≦20%, n (%) [2]: 18 (1.3) n (%) | Weight % Change Category >20%, n (%) [2]: 0 n (%) | Weight % Change Category ≧−5% to <0%, n (%) [2]: 565 (41.2) n (%) | Weight % Change Category ≧−10% to <−5%, n (%) [2]: 144 (10.5) n (%) | Weight % Change Category ≧−20% to <−10%, n (%) [2]: 53 (3.9) n (%) | observed weight loss of greater than 10%, subjects n (%) [3]: 17 (1.9%) n (%) | percentage of subjects with weight change of >−10% to <−5% [3]: 9.3% | weight decrease reported, subjects n (%) (20 mg BID, Placebo-controlled Period (24 weeks)): 8 (0.8%) n (%) | Weight % Change Category 0%, n (%) [4]: 101 (11.2) n (%) | Weight % Change Category <−20%, n (%) [4]: 1 (0.1) n (%) | Weight % Change Category >0% to ≦5%, n (%) [4]: 277 (30.8) n (%) | Weight % Change Category >5% to ≦10%, n (%) [4]: 262 (2.9) n (%) | Weight % Change Category >10% to ≦20%, n (%) [4]: 2 (0.2) n (%) | Weight % Change Category >20%, n (%) [4]: 0 n (%) | Weight % Change Category ≧−5% to <0%, n (%) [4]: 393 (43.7) n (%) | Weight % Change Category ≧−10% to <−5%, n (%) [4]: 84 (9.3) n (%) | Weight % Change Category ≧−20% to <−10%, n (%) [4]: 16 (1.8) n (%) | mean weight change from baseline (20 mg BID, end of the Apremilast-exposure Period): -1.09 kg | mean weight change from baseline (20 mg BID, end of the Placebo-controlled Period, Subjects as Initially Treated at Week 0): -1.01 kg | observed weight loss of greater than 10%, % subjects [5]: 4.9% | weight decrease reported, subjects n (%) [5]: 36 (1.5%) n (%) | Weight % Change Category 0%, n (%) [6]: 162 (7.1) n (%) | Weight % Change Category <−20%, n (%) [6]: 11 (0.5) n (%) | Weight % Change Category >0% to ≦5%, n (%) [6]: 610 (26.9) n (%) | Weight % Change Category >5% to ≦10%, n (%) [6]: 116 (5.1) n (%) | Weight % Change Category >10% to ≦20%, n (%) [6]: 29 (1.3) n (%) | Weight % Change Category >20%, n (%) [6]: 5 (0.2) n (%) | Weight % Change Category ≧−5% to <0%, n (%) [6]: 923 (40.7) n (%) | Weight % Change Category ≧−10% to <−5%, n (%) [6]: 311 (13.7) n (%) | Weight % Change Category ≧−20% to <−10%, n (%) [6]: 101 (4.5) n (%) | observed weight loss of greater than 10%, subjects n (%) [7]: 23 (1.5%) n (%) | percentage of subjects with weight change of >−10% to <−5% [7]: 11.3% | weight decrease reported, subjects n (%) (30 mg BID, Placebo-controlled Period (24 weeks)): 18 (1.1%) n (%) | Weight % Change Category 0%, n (%) [8]: 159 (10.3) n (%) | Weight % Change Category <−20%, n (%) [8]: 1 (0.1) n (%) | Weight % Change Category >0% to ≦5%, n (%) [8]: 410 (26.6) n (%) | Weight % Change Category >5% to ≦10%, n (%) [8]: 37 (2.4) n (%) | Weight % Change Category >10% to ≦20%, n (%) [8]: 8 (0.5) n (%) | Weight % Change Category >20%, n (%) [8]: 1 (0.1) n (%) | Weight % Change Category ≧−5% to <0%, n (%) [8]: 729 (47.3) n (%) | Weight % Change Category ≧−10% to <−5%, n (%) [8]: 174 (11.3) n (%) | Weight % Change Category ≧−20% to <−10%, n (%) [8]: 22 (1.4) n (%) | mean weight change from baseline (30 mg BID, end of the Apremilast-exposure Period): -1.41 kg | mean weight change from baseline (30 mg BID, end of the Placebo-controlled Period, Subjects as Initially Treated at Week 0): -1.21 kg | Weight % Change Category 0%, n (%) [9]: 325 (8.3) n (%) | Weight % Change Category <−20%, n (%) [9]: 14 (0.4) n (%) | Weight % Change Category >0% to ≦5%, n (%) [9]: 1109 (28.4) n (%) | Weight % Change Category >5% to ≦10%, n (%) [9]: 179 (4.6) n (%) | Weight % Change Category >10% to ≦20%, n (%) [9]: 48 (1.2) n (%) | Weight % Change Category >20%, n (%) [9]: 6 (0.2) n (%) | Weight % Change Category ≧−5% to <0%, n (%) [9]: 1602 (41.0) n (%) | Weight % Change Category ≧−10% to <−5%, n (%) [9]: 466 (11.9) n (%) | Weight % Change Category ≧−20% to <−10%, n (%) [9]: 157 (4.0) n (%) | Weight % Change Category 0%, n (%) [10]: 280 (10.8) n (%) | Weight % Change Category <−20%, n (%) [10]: 3 (0.1) n (%) | Weight % Change Category >0% to ≦5%, n (%) [10]: 741 (28.6) n (%) | Weight % Change Category >5% to ≦10%, n (%) [10]: 66 (2.5) n (%) | Weight % Change Category >10% to ≦20%, n (%) [10]: 12 (0.5) n (%) | Weight % Change Category >20%, n (%) [10]: 1 (<0.1) n (%) | Weight % Change Category ≧−5% to <0%, n (%) [10]: 1187 (45.8) n (%) | Weight % Change Category ≧−10% to <−5%, n (%) [10]: 263 (10.2) n (%) | Weight % Change Category ≧−20% to <−10%, n (%) [10]: 38 (1.5) n (%) | body weight of the majority of subjects (Placebo-controlled Period and Apremilast-exposure Period): maintained their body weight within 0% and 5% of baseline | weight decrease reported, subjects n (%) (all subjects who received apremilast, Placebo-controlled Period (24 weeks)): 26 (0.9%) n (%)
